pKi: −log10 of the molar value. Bounds are passed on as bounds.

T1 sequence (Q07820 whole entry): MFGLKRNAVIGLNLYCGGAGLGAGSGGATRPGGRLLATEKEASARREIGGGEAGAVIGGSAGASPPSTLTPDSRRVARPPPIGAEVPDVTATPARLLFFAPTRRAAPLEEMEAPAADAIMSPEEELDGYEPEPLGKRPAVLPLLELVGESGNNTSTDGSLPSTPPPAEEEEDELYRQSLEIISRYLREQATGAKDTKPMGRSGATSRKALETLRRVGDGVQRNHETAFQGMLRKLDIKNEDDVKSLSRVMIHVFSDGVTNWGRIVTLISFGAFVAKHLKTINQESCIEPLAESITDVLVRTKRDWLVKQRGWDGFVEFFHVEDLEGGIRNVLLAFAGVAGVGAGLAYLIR

This assay addresses T1, MCL-1 (Homo sapiens, UniProt Q07820).
T1 construct: purchased BPS Bioscience
As to the kind of experiment: Cell Free Mcl-1:Bim affinity assay (Mcl-1 Bim), fluorescence polarization competition. It is filed as binding. Particulars: 15 nM MCL-1, 5 nM FITC-Bim peptide tracer, 1 hour at room temperature; Ki calculated from IC50 by Nikolovska-Coleska's equation; read-out: BIM_Ki. The method, then: The binding affinity of each compounds was measured via fluorescence polarization competition assay, in which the compound competes the same binding site with the ligand, and thus lead to dose-dependent anisotropy reduction. The tracer ligand utilized was a fluorescein isothiocyanate labelled peptide (FITC-[…]) derived from Bim (GenScript).
The assay was carried out in black half-area 96-well NBS plate (Corning), containing 15 nM of MCL-1 (BPS Bioscience), 5 nM of FITC-Bim and 3-fold series diluted test compounds in a total volume of 50 uL of assay buffer (20 mM HEPES, 50 mM NaCl, 0.002% Tween 20 1 mM TCEP and 1% DMSO). The reaction plate was incubated for 1 hour at room temperature. The change of anisotropy is measured by Envision multimode plate reader (PerkinElmer) at emission wavelength 535 nm. Fluorescence polarization was calculated in mP unit and the percentage inhibition was calc. by % inhibition=100×(mPDMSO−mP)/(mPDMSO−mPPC), in which mPDMSO is the DMSO control, and mPPC is the positive control. IC50 values were determined from a 10-point dose response curve by fitting the percent inhibition against compound concentration using the GraphPad Prism software. The inhibition constant Ki was subsequently calculated according Nikolovska-Coleska's equation (Anal. Biochem., 2004, 332, 261),
Where [I]50 is the concentration of the free inhibitor at 50% inhibition, [L]50 is the concentration of the free labeled ligand at 50% inhibition, [P]0 is the concentration of the free protein at 0% inhibition, and Kd is the dissociation constant of the protein-ligand complex.
Consider `Cc1c(-c2c(-c3ccc(F)cc3)cn3ncnc(O[C@@H](Cc4ccccc4OCC4CC4)C(=O)O)c23)ccc(OCCN2CCN(C)CC2)c1Cl` (atropisomer, axis not shown) [Example 2, (2S)-2-[(5R^a)-5-[3-Chloro-2-methyl-4-[2-(4-methylpiperazin-1-yl)ethoxyl]phenyl]-6-(4-fluoro-phenyl)pyrrolo[2,1-f][1,2,4]triazin-4-yl]oxy-3-[2-(cyclopropylmethoxy)phenyl]propanoic acid], for which the pKi is below 4.92. For `Cc1c(-c2c(-c3ccc(F)cc3)cn3ncnc(O[C@H](Cc4ccccc4OCC4CC4)C(=O)O)c23)ccc(OCCN2CCN(C)CC2)c1Cl` (atropisomer, axis not shown; (Ra)) [Example 4, (2R)-2-[(5Ra)-5-[3-Chloro-2-methyl-4-[2-(4-methylpiperazin-1-yl)ethoxy]phenyl]-6-(4-fluoro-phenyl)pyrrolo[2,1-f][1,2,4]triazin-4-yl]oxy-3-[2-(cyclopropylmethoxy)phenyl]propanoic acid], the pKi was 7.95. Regarding `COc1ccccc1-c1nccc(COc2ccccc2C[C@@H](Nc2ncnn3cc(-c4ccc(F)cc4)c(-c4ccc(OCCN5CCN(C)CC5)c(Cl)c4C)c23)C(=O)O)n1` (atropisomer, axis not shown; (Ra)) [Example 13, (2R)-2-{[(5Ra)-5-{3-Chloro-2-methyl-4-[2-(4-methylpiperazin-1-yl)ethoxy]phenyl}-6-(4-fluorophenyl)pyrrolo[2,1-f][1,2,4]triazin-4-yl]amino}-3-(2-{[2-(2-methoxyphenyl)pyrimidin-4-yl]methoxy}phenyl)propanoic acid], the pKi is 9.15.

For the compound `Cc1c(-c2c(-c3ccc(F)cc3)cn3ncnc(O[C@H](Cc4ccccc4OCC4CC4)C(=O)O)c23)ccc(OCCN2CCN(C)CC2)c1Cl` (atropisomer, axis not shown; (Sa)) [Example 1, (2R)-2-[(5Sa)-5-[3-Chloro-2-methyl-4-[2-(4-methylpiperazin-1-yl)ethoxy]phenyl]-6-(4-fluoro-phenyl)pyrrolo[2,1-f][1,2,4]triazin-4-yl]oxy-3-[2-(cyclopropylmethoxy)phenyl]propanoic acid], the pKi is 6.69.

For `Cc1c(-c2c(-c3ccc(F)cc3)cn3ncnc(O[C@@H](Cc4ccccc4OCC4CC4)C(=O)O)c23)ccc(OCCN2CCN(C)CC2)c1Cl` (atropisomer, axis not shown; (Sa)) [Example 3, (2S)-2-[(5Sa)-5-[3-Chloro-2-methyl-4-[2-(4-methylpiperazin-1-yl)ethoxy]phenyl]-6-(4-fluoro-phenyl)pyrrolo[2,1-f][1,2,4]triazin-4-yl]oxy-3-[2-(cyclopropylmethoxy)phenyl]propanoic acid], the pKi is below 4.92. For `Cc1c(-c2c(-c3ccc(F)cc3)cn3ncnc(N[C@@H](Cc4ccccc4OCC4CC4)C(=O)O)c23)ccc(OCCN2CCN(C)CC2)c1Cl` (atropisomer, axis not shown; (Sa)) [Example 8, (2S)-2-{[(5Sa)-5-[3-Chloro-2-methyl-4-[2-(4-methylpiperazin-1-yl)ethoxy]phenyl]-6-(4-fluorophenyl)pyrrolo[2,1-f][1,2,4]triazin-4-yl]amino}-3-[2-(cyclopropylmethoxy)phenyl]-propanoic acid], the pKi was below 4.92. Turning to `COc1ccccc1-c1nccc(COc2ccccc2C[C@H](Nc2ncnn3cc(-c4ccc(F)cc4)c(-c4ccc(OCCN5CCN(C)CC5)c(Cl)c4C)c23)C(=O)O)n1` (racemic) [Example 11], the pKi was 6.42. The figure for `Cc1c(-c2c(-c3ccc(F)cc3)cn3ncnc(N[C@H](Cc4ccccc4OCC4CC4)C(=O)O)c23)ccc(OCCN2CCN(C)CC2)c1Cl` (single isomer, unassigned) [Example 5] is below 4.92; for `Cc1c(-c2c(-c3ccc(F)cc3)cn3ncnc(N[C@H](Cc4ccccc4OCC4CC4)C(=O)O)c23)ccc(OCCN2CCN(C)CC2)c1Cl` (single isomer, unassigned) [Example 7] it is 7.11; for `COc1ccccc1-c1nccc(COc2ccccc2C[C@H](Nc2ncnn3cc(-c4ccc(F)cc4)c(-c4ccc(OCCN5CCN(C)CC5)c(Cl)c4C)c23)C(=O)O)n1` (single isomer, unassigned) [Example 12] it is 6.00.

Consider “(2S)-2-{[(5Ra)-5-[3-Chloro-2-methyl-4-[2-(4-methylpiperazin-1-yl)ethoxy]phenyl]-6-(4-fluorophenyl)pyrrolo[2,1-f][1,2,4]triazin-4-yl]amino}-3-[2-(cyclopropylmethoxy)phenyl]propanoic acid [Example 6]”, for which the pKi was below 4.92.

Values taken from patent US20220064170A1, “BICYCLIC HETEROCYCLIC DERIVATIVES AND THEIR USE AS PHARMACEUTICALS” (Prelude Therapeutics, Incorporated, priority 2018, published 2022).
